Measurements as given in article PMC9792776 (Frontiers in Pharmacology, 2022).

Columns and labels:
[1] = molecular target: CYP2C9 (Homo sapiens, UniProt P11712); details: recombinant enzyme
[2] = molecular target: CYP3A4 (Homo sapiens, UniProt P08684); test: Intrinsic clearance in human recombinant CYP3A4
[3] = In vitro Caco-2 cell permeability; type: in vitro ADME; details: human
Text: The first-order absorption model has different absorption rate constants (ka) and fraction available from dosage form (fa) to simulate absorption processes in fasting and fed states. […] Caco-2 (human colorectal adenocarcinoma) cells are used to model the intestinal epithelial barrier. The Simcyp (Version 19.0, Certara Inc., Sheffield, UK) minimal PBPK, which treats all organs other than the intestine and liver as a single compartment ([Rowland Yeo et al., 2010]), was selected, along with a single adjusting compartment (SAC) distribution model. The SAC is a nonphysiologic compartment that permits adjustment to the drug concentration profile in the systemic compartment ([Ke et al., 2016]).

Sequence of CYP3A4 (P08684 whole entry): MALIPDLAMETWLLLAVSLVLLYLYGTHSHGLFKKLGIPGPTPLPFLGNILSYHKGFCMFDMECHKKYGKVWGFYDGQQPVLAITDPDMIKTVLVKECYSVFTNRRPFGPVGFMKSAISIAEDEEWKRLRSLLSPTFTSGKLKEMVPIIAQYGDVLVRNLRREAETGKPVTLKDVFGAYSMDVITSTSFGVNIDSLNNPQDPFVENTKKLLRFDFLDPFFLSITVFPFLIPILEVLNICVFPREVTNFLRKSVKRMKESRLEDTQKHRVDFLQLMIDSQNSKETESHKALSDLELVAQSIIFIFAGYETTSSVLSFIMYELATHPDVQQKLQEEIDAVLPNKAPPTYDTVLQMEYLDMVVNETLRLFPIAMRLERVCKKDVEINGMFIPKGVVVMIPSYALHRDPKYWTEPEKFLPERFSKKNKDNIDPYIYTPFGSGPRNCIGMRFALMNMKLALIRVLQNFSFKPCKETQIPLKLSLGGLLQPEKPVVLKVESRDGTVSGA
Sequence of CYP2C9 (P11712 whole entry): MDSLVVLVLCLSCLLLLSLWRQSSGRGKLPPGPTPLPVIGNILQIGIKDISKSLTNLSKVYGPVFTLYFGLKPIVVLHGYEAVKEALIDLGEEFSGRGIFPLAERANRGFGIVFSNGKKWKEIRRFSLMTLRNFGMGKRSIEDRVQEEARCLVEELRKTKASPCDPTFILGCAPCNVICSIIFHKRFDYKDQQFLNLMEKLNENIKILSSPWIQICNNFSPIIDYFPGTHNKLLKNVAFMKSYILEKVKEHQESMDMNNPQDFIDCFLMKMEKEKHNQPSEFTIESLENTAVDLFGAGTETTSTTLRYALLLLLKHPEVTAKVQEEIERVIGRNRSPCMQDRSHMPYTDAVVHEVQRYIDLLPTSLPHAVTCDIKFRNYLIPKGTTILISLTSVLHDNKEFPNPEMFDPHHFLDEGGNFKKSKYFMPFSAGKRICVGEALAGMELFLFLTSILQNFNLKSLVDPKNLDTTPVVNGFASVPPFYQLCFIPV

Question: For `O=C(O)Cc1ccccc1Nc1c(Cl)cccc1Cl` [Diclofenac], which “CLint CYP2C9” value [1] is on record?
Answer: Its value is 2.965 µL/min/pmol CYP.

Question: Which “CLint CYP3A4” value [2] does the source give for `Cc1ncc2n1-c1ccc(Cl)cc1C(c1ccccc1F)=NC2` [Midazolam, reference compound] here?
Answer: Its value is 3.083 µL/min/pmol CYP.

Question: With `CC(C)NCC(O)COc1cccc2ccccc12` (stereo not drawn) [Propranolol, propranolol, reference compound] as the compound, how does the Papp [3] read?
Answer: Its Papp is 5.68 ×10⁻⁶ cm/s.
